Source: patent US20250380697A1, “ISOXAZOLINE DERIVATIVE COMPOUND AND INSECTICIDAL COMPOSITION COMPRISING SAME” (KYUNG NONG CORPORATION, priority 2022, published 2025)

What was measured:
Assay type in all cases: in vivo
Phaedon brassicae = test: Pesticidal activity against Phaedon brassicae, leaf-dipping method; conditions: counted 24, 48, 72 hours, time not given, read-out: mortality rate, Phaedon brassicae
Protocol: Cabbage (Daiya) leaves were cut into pieces with a diameter of 5.8 cm, dipped in the pesticide composition where the compound of Synthesis Example 2 was diluted (the solvent=distilled water+acetone 50,000 mg/L+Triton X-100 100 mg/L) for 30 seconds, and sufficiently shade-dried. Then, the shade-dried cabbage leaves were is placed in a petri dish (8.8 cm in diameter) covered with filter paper and repeatedly inoculated 3-5 times with the larvae of Phaedon brassicae, 10 larvae per inoculation. In particular, the Phaedon brassicae larvae used were those which were bred in the Andong National University (Korea) for multiple generations.
After the inoculation, the Phaedon brassicae larvae were stored under the conditions of 16 hours of light and 8 hours of dark, 25±1° C. and 50-60% relative humidity, and the number of live Phaedon brassicae larvae was counted 24, 48, and 72 hours after the inoculation. Thereafter, the larvae mortality rate was calculated in the same manner as in Test Example 1 above.

Thrips tabaci Lindeman = test: Pesticidal activity against Thrips tabaci Lindeman, spray method; conditions: adults, counted 24 and 48 hours, time not given, read-out: mortality rate, Thrips tabaci Lindeman
From the text: A water-soaked filter paper (9.0 cm in diameter) was placed in an insect breeding dish (Lab Guide®) with a diameter of 9.0 cm and a height of 4.0 cm, and then parafilm (width 4.0 cm×height 4.0 cm) was placed thereon. Before being treated with a pesticide composition, 10 adult Thrips tabaci Lindeman were inoculated per petri dish using a No. 4 brush. In this case, Thrips tabaci Lindeman adults used were those collected in a place near the Andong National University (Korea) and bred for multiple generations. Then, the pesticide composition where the compound of Synthesis Example 2 was diluted (the solvent=distilled water+acetone 50,000 mg/L+Triton X-100 100 mg/L) was loaded into a 100 mL small sprayer, and sprayed 10-12 times at a distance of 30 cm and a height of 50 cm, and one cotyledons of soybean, which is a host plant, were added one at a time. Then, the Thrips tabaci Lindeman adults were stored under the conditions of 16 hours of light and 8 hours of darkness, 25±1° C., and relative humidity of 50-60%, and the number of live Thrips tabaci Lindeman adults was counted 24, and 48 hours after the inoculation. Thereafter, the larvae mortality rate was calculated in the same manner as in Test Example 1 above.

Lymantria dispar = test: Pesticidal activity against Lymantria dispar, leaf-dipping method; conditions: maple leaf-dipping, counted 24, 48, 72 hours, time not given, read-out: mortality rate, Lymantria dispar
Protocol: Maple leaves were dipped in the pesticide composition where the compound of Synthesis Example 2 was diluted (the solvent=distilled water+acetone 50,000 mg/L+Triton X-100 100 mg/L) for 30 seconds, and sufficiently shade-dried by placing them on aluminum foil. Then, in order to maintain the humidity of the shade-dried maple leaves, they were placed on a petri dish (9.0 cm in diameter) covered with a filter paper (9.0 cm in diameter) treated with distilled water, and repeatedly inoculated 4 times of five early third instar larvae of Lymantria dispar. In particular, Lymantria dispar larvae used were collected in Jukjang-myeon, Buk-gu, Pohang-si, Gyeongsangbuk-do, Korea. Then, Lymantria dispar larvae were stored under 16 hours of light: 8 hours of dark, 25±1° C., and 50-60% relative humidity, and the number of Lymantria dispar larvae was counted 24, 48, and 72 hours after inoculation. Thereafter, the larvae mortality rate was calculated in the same manner as in Test Example 1 above.

Manulea degenerella = test: Pesticidal activity against Manulea degenerella, spray method; conditions: third instar larvae, counted 24, 48, 72 hours, time not given
From the text: A water-soaked filter paper (9.0 cm in diameter) was placed in an insect breeding dish (Lab Guide®) with a diameter of 9.0 cm and a height of 4.0 cm, and then parafilm (width 4.0 cm×height 4.0 cm) was placed thereon. Before treating with a pesticide composition, 10 of the third instar Manulea degenerella larvae were inoculated per breeding dish using a No. 4 brush. In particular, Manulea degenerella larvae used were those collected in Icheon, Gyeonggi-do (Korea). Then, the pesticide composition where the compound of Synthesis Example 2 was diluted (the solvent=distilled water+acetone 50,000 mg/L+Triton X-100 100 mg/L) was loaded into a 100 mL small sprayer, and sprayed 10-12 times at a distance of 30 cm and a height of 50 cm, and one cotyledons of a persimmon tree, which is a host plant, were added one at a time. Then, the Manulea degenerella larvae were stored under the conditions of 16 hours of light and 8 hours of darkness, 25±1° C., and relative humidity of 50-60%, and the number of live Manulea degenerella larvae was counted 24, 48, and 72 hours after the inoculation. Thereafter, the larvae mortality rate was calculated in the same manner as in Test Example 1 above.

[1] = test system: Resistant Plutella xylostella; test: Resistance (tolerance) test against Plutella xylostella; conditions: leaf-dipping, chlorantraniliprole-selected resistant individuals, counted 24 and 48 hours, read-out: mortality rate, Resistant Plutella xylostella
Protocol: Resistance (tolerance) tests for pesticide compositions were performed on Plutella xylostella. In this case, the Plutella xylostellas used were resistant individuals obtained as follows: radish sprouts were germinated using a moth breeding acrylic cage (25 cm×30 cm×30 cm) to induce egg-laying in a breeding room in the Chungbuk National University (Korea), and the adult insects were collected using an InsectaVac Aspirator (BioQuip®) and induced to lay eggs again by applying a selection pressure using diamide-based chlorantraniliprole at 12.5 ppm once a month to breed for multiple generations.
Cabbage leaves were dipped in the pesticide composition where the compound was diluted (the solvent=distilled water+acetone 50,000 mg/L+Triton X-100 100 mg/L) for 30 seconds, and sufficiently shade-dried. Then, the shade-dried cabbage leaves were placed in a petri dish (8.8 cm in diameter) covered with a filter paper and repeatedly inoculated 3-5 times with third instar larvae of Plutella xylostella, which are resistant individuals, 10 larvae per inoculation. Then, the Plutella xylostella larvae were stored under the conditions of 16 hours of light and 8 hours of dark, 25±1° C., and relative humidity of 50-60%, and the number of live […] larvae was counted 24 and 48 hours after the inoculation. Thereafter, the larvae mortality rate was calculated in the same manner as in Test Example 1 above, and the results are shown in Table 2 below.

Spodoptera litura = test: Pesticidal activity against Spodoptera litura, leaf-dipping method; conditions: 48 h, read-out: mortality rate, Spodoptera litura

Cc1cc(C2=NOC(c3cc(Cl)cc(C(F)(F)F)c3)(C(F)(F)F)C2)ccc1C(=O)NC(=O)C1CC1 (racemic) [Synthesis Example 2]
mortality at 1 ppm (Phaedon brassicae): 100% | mortality at 3 ppm (Phaedon brassicae): 100% | mortality at 10 ppm (Phaedon brassicae): 100% | mortality at 1 ppm (Thrips tabaci Lindeman): 70% | mortality at 3 ppm (Thrips tabaci Lindeman): 90% | mortality at 10 ppm (Thrips tabaci Lindeman): 100% | mortality at 0.01 ppm (Lymantria dispar): 74% | mortality at 0.1 ppm (Lymantria dispar): 100% | mortality rate, Manulea degenerella (Manulea degenerella; 0.1 ppm): 100% | mortality rate, Manulea degenerella (Manulea degenerella; 1 ppm): 100% | mortality at 0.1 ppm [1]: 93% | mortality at 0.3 ppm [1]: 96% | mortality at 1 ppm [1]: 100% | mortality at 0.1 ppm (Spodoptera litura): 100% | mortality at 1 ppm (Spodoptera litura): 100% | mortality at 10 ppm (Spodoptera litura): 100%

CON=CNC(=O)c1ccc(C2=NOC(c3cc(Cl)cc(Cl)c3)(C(F)(F)F)C2)cc1C (stereo not shown) [Comparative Example 1, fluxametamide]
mortality at 1 ppm (Phaedon brassicae): 100% | mortality at 3 ppm (Phaedon brassicae): 100% | mortality at 10 ppm (Phaedon brassicae): 100% | mortality at 1 ppm (Thrips tabaci Lindeman): 63% | mortality at 3 ppm (Thrips tabaci Lindeman): 83% | mortality at 10 ppm (Thrips tabaci Lindeman): 86% | mortality at 0.01 ppm (Lymantria dispar): 5% | mortality at 0.1 ppm (Lymantria dispar): 95% | mortality rate, Manulea degenerella (Manulea degenerella; 0.1 ppm): 0% | mortality rate, Manulea degenerella (Manulea degenerella; 1 ppm): 16%% | mortality at 0.1 ppm [1]: 34% | mortality at 0.3 ppm [1]: 38% | mortality at 1 ppm [1]: 58% | mortality at 0.1 ppm (Spodoptera litura): 90% | mortality at 1 ppm (Spodoptera litura): 100% | mortality at 10 ppm (Spodoptera litura): 100%

CNC(=O)c1cc(Cl)cc(C)c1NC(=O)c1cc(Br)nn1-c1ncccc1Cl [Comparative Example 2, chlorantraniliprole]
mortality at 0.01 ppm (Lymantria dispar): 0% | mortality at 0.1 ppm (Lymantria dispar): 10% | mortality rate, Manulea degenerella (Manulea degenerella; 0.1 ppm): 100% | mortality rate, Manulea degenerella (Manulea degenerella; 1 ppm): 100% | mortality at 1 ppm [1]: 34%
